Results from US4451284A, “Derivatives of 2-nitro-4- or -5-pyridyloxyphenylphosphonic acid, the preparation thereof, the use thereof as herbicides and/or plant growth regulators” (Ciba-Geigy Corporation, priority 1981, dated 1984).
Where two headings read alike, the source gives them in different places.

How the values were obtained:
[1] = tested on: Erysiphe graminis; assay: Action against Erysiphe graminis on barley; assay type: in vivo; conditions: 0.02% spray mixture, 10 days
Protocol: Barley plants about 8 cm in height are sprayed with a spray mixture (0.02% of compound of formula I) prepared from a 25% emulsifiable concentrate. After 3-4 hours the plants are dusted with conidia of Erysiphe graminis. The infected barley plants are then stood in a greenhouse at about 22° C. Evaluation of fungus attack is made 10 days later.

[2] = tested on: Sinapis; assay: Postemergence herbicidal action (contact herbicide), compounds of formula I, Sinapis; assay type: in vivo; parameters: key: 1: plants have not germinated or have completely died off; 2-3: very pronounced action; 4-6: medium action; 7-8: slight action; 9: no action (as untreated controls); conditions: 4 kg a.i./ha, 15 days
Protocol: (§1) The weeds to be tested are sprayed postemergence (in the 4- to 6-leaf stage) with an aqueous dispersion prepared from compounds of formula I formulated as (a) a 10% or (b) a 25% wettable powder or (c) a 25% emulsifiable concentrate, at a rate of application of 4 kg a.i./ha. The plants are kept at 24°-26° C. and 45-60% relative humidity. The test is evaluated 15 days later in accordance with the same rating as used in the preemergence test (Example 19).

[3] = tested on: weeds; assay: Postemergence herbicidal action (contact herbicide), compounds of formula I, overall; assay type: in vivo; conditions: 4 kg a.i./ha, 15 days later
Protocol: as §1

[4] = tested on: Setaria; assay: Postemergence herbicidal action (contact herbicide), compounds of formula I, Setaria; assay type: in vivo; conditions: 4 kg a.i./ha, 15 days
Protocol: as §1

[5] = tested on: Solanum; assay: Postemergence herbicidal action (contact herbicide), compounds of formula I, Solanum; assay type: in vivo; parameters: key: 1: plants have not germinated or have completely died off; 2-3: very pronounced action; 4-6: medium action; 7-8: slight action; 9: no action (as untreated controls); conditions: 4 kg a.i./ha, 15 days
Protocol: as §1

[6] = tested on: mould fungi; assay: Action against mould fungus on moist maize; assay type: in vivo, mixed population of mould fungi; conditions: for reduction of fungus attack compared with untreated controls: 0.06% a.i.
Source text: Dry maize grains (portions of 80 g each) are thoroughly mixed in sealable plastic beakers with an aqueous suspension prepared from a 25% wettable powder formulation of a compound of formula I. The application is so adjusted as to give a concentration of 0.06% of active ingredient, based on the weight of dry maize. A moistened slip of paper provides for a saturated humid atmosphere in the beakers which are filled with maize and then sealed. A mixed population of mould fungi develops spontaneously after incubation for 2-3 weeks at about 20° C. in the maize samples which have been treated only with water. The effectiveness of the test compounds is assessed by evaluating the degree of fungus development after 3 weeks.
A visual assessment is made after each month according to the same criteria as specified above.

[7] = tested on: soya bean plants; assay: Regulation of the growth of soya bean plants; conditions: controls = 100%
[8] = tested on: cotton; assay: Stimulation of root growth in cotton (plastic boxes, 30 days); assay type: in vivo; conditions: for root dry weight expressed as % of controls / root length expressed as % controls: 30 days, controls = 100%
Protocol: (§2) Compounds of formula I are employed in the form of aqueous dispersions prepared from a 25% wettable powder. The test is carried out with seeds which are sown in plastic boxes measuring 5×35×60 cm and filled with soil (15 seeds per box). The seeds are treated before sowing at rates of application of 45-500 mg per kg of seeds. The boxes are kept under controlled conditions in a climatic chamber. After 30 days, the plants are carefully washed with water to remove the soil and the length and dry weight of the roots are assessed.

[9] = tested on: wheat; assay: Stimulation of root growth in wheat (plastic cylinders, 10 days); assay type: in vivo; conditions: seed treatment 4-130 mg per kg of seeds or soil spray 0.3 to 3 kg/ha; after 10 days
Protocol: Compounds of formula I are applied in the form of aqueous dispersions prepared from a 25% wettable powder. The test is carried out with seeds which are sown in plastic cylinders measuring 5×30 cm and filled with soil (10 seeds per cylinder). The seeds are (a) treated before sowing at rates of application of 4-130 mg per kg of seeds or (b) are untreated and the soil is sprayed with a dispersion of the active ingredient at rates of application of 0.3 to 3 kg/ha. The cylinders are kept under controlled conditions in a climatic chamber. After 10 days, the seedlings are carefully washed with water to remove the soil and the length and dry weight of the roots are assessed.

[10] = tested on: wheat; assay: Stimulation of root growth in wheat (plastic boxes, 30 days); assay type: in vivo; conditions: for root dry weight expressed as % of controls / root length expressed as % of controls: 30 days, controls = 100%
Protocol: as §2

[11] = tested on: Xanthomonas oryzae; assay type: in vivo; conditions: for bactericidal activity: based on the volume of the soil
[12] = tested on: Xanthomonas oryzae; assay type: in vivo; conditions: for bactericidal properties in words: residual-protective action
[13] = tested on: Stellaria; assay: Preemergence herbicidal action (inhibition of germination), Stellaria; assay type: in vivo; parameters: key to preemergence herbicidal action rating: 1: plants have not germinated or have completely died off; 2-3: very pronounced action; 4-6: medium action; 7-8: slight action; 9: no action (as untreated controls); conditions: 4 kg a.i./ha, after 3 weeks
Protocol: (§3) In a greenhouse, immediately after sowing seeds of test plants in seed dishes, the surface of the soil is treated with an aqueous dispersion prepared from a 10% wettable powder formulation of test compounds of formula I. Concentrations of 4 kg of active ingredient per hectare are used. The seed dishes are kept in the greenhouse at 22°-25° C. and 50-70% relative humidity, and the test is evaluated after 3 weeks in accordance with the following rating: […]

[14] = tested on: Setaria; assay: Preemergence herbicidal action (inhibition of germination), Setaria; assay type: in vivo; parameters: key to preemergence herbicidal action rating: 1: plants have not germinated or have completely died off; 2-3: very pronounced action; 4-6: medium action; 7-8: slight action; 9: no action (as untreated controls); conditions: 4 kg a.i./ha, after 3 weeks
Protocol: as §3

[15] = tested on: Sinapis; assay: Preemergence herbicidal action (inhibition of germination), Sinapis; assay type: in vivo; conditions: 4 kg a.i./ha, after 3 weeks
Protocol: as §3

[16] = tested on: Solanum; assay: Postemergence herbicidal action (contact herbicide), compounds of formula II, Solanum; assay type: in vivo; parameters: key to postemergence herbicidal action rating: 1: plants completely withered; 2-3: very pronounced action; 4-6: medium action; 7-8: insignificant action; 9: no action (as untreated controls); conditions: 4 kg a.i./ha, 15 days; for postemergence herbicidal action rating: 25% wettable powder; for herbicidal action in words: postemergence
Protocol: (§4) The plants for testing are sprayed postemergence (in the 4- to 6-leaf stage) at a concentration of 4 kg a.i./ha with an aqueous dispersion prepared from a compound of formula II formulated as a 25% wettable powder. The plants are then kept at 24°-26° C. and 45-60% relative humidity. The test is evaluated 15 days later according to the following rating: […]

[17] = tested on: Phaseolus; assay: Postemergence herbicidal action (contact herbicide), compounds of formula II, Phaseolus; assay type: in vivo; parameters: key to postemergence herbicidal action rating: 1: plants completely withered; 2-3: very pronounced action; 4-6: medium action; 7-8: insignificant action; 9: no action (as untreated controls); conditions: 4 kg a.i./ha, 15 days; for postemergence herbicidal action rating: 25% wettable powder; for herbicidal action in words: postemergence
Protocol: as §4

[18] = formulation (c) 25% emulsifiable concentrate
[19] = seed treatment 45-500 mg per kg of seeds, after 30 days
[20] = formulation (b) 25% wettable powder
[21] = formulation (a) 10% wettable powder

COP(=O)(OC)c1cc(Oc2ccc(C(F)(F)F)cn2)ccc1[N+](=O)[O-] [Compound 1]
reduction of fungus attack compared with untreated controls ([1]; 25% emulsifiable concentrate, untreated = 100% attack): 80-95%
effectiveness in words [1]: particularly effective
postemergence herbicidal action rating [2, 18]: 3
postemergence effectiveness in words [3]: very effective
postemergence herbicidal action rating [4, 18]: 4
postemergence herbicidal action rating [5, 18]: 4

O=[N+]([O-])c1ccc(Oc2ccc(C(F)(F)F)cn2)cc1P(=O)(O)O [Compound 3]
reduction of fungus attack compared with untreated controls ([6]; after 3 weeks): 80-95%
reduction of fungus attack compared with untreated controls ([6]; after 3 weeks and a further month): 80-95%
reduction of fungus attack compared with untreated controls ([6]; after 3 weeks, a further month and yet a further month): 50-80%
fungicidal activity in words ([6]; 0.06% of active ingredient on dry maize): particularly pronounced fungicidal activity
Weight of pods as % of controls ([7]; 0.08 kg a.i./ha): 119 % of controls
no. of pods as % of controls ([7]; 0.08 kg a.i./ha): 107 % of controls
Weight of pods as % of controls ([7]; 0.40 kg a.i./ha): 119 % of controls
no. of pods as % of controls ([7]; 0.40 kg a.i./ha): 119 % of controls
Weight of pods as % of controls ([7]; 0.80 kg a.i./ha): 135 % of controls
no. of pods as % of controls ([7]; 0.80 kg a.i./ha): 109 % of controls
Weight of pods as % of controls ([7]; 4.00 kg a.i./ha): 108 % of controls
no. of pods as % of controls ([7]; 4.00 kg a.i./ha): 98 % of controls
root dry weight expressed as % of controls ([8]; 45 mg a.i./kg of seeds): 105 % of controls
root length expressed as % controls ([8]; 45 mg a.i./kg of seeds): 122 % controls
root dry weight expressed as % of controls ([8]; 150 mg a.i./kg of seeds): 97 % of controls
root length expressed as % controls ([8]; 150 mg a.i./kg of seeds): 111 % controls
root dry weight expressed as % of controls ([8]; 500 mg a.i./kg of seeds): 129 % of controls
root length expressed as % controls ([8]; 500 mg a.i./kg of seeds): 122 % controls
root growth stimulation effectiveness in words [8, 19]: every effective
root growth stimulation effectiveness in words [9]: very effective
root dry weight expressed as % of controls ([10]; 45 mg a.i./kg of seeds): 105 % of controls
root length expressed as % of controls ([10]; 45 mg a.i./kg of seeds): 98 % of controls
root dry weight expressed as % of controls ([10]; 150 mg a.i./kg of seeds): 112 % of controls
root length expressed as % of controls ([10]; 150 mg a.i./kg of seeds): 107 % of controls
root dry weight expressed as % of controls ([10]; 500 mg a.i./kg of seeds): 110 % of controls
root length expressed as % of controls ([10]; 500 mg a.i./kg of seeds): 107 % of controls
root growth stimulation effectiveness in words [10, 19]: every effective

COP(=O)(OC)c1cc(Oc2ncc(Cl)cc2Cl)ccc1[N+](=O)[O-] [Compound 4, Dimethyl 2-nitro-5-(3',5'-dichloro-2'-pyridyloxy)phenylphosphonate]
postemergence herbicidal action rating [2, 20]: 3
postemergence effectiveness in words [3]: very effective
postemergence herbicidal action rating [4, 20]: 3
bactericidal activity ([11]; concentration of 0.0006%): 50-80%
bactericidal activity ([11]; concentration of 0.006%): over 95%
bactericidal activity in words ([11]; systemic action): pronounced bactericidal activity
action ([12]; concentration of 0.0006%): 80-95%
action ([12]; concentration of 0.006%): over 95%
bactericidal properties in words [12]: pronounced bactericidal properties
postemergence herbicidal action rating [5, 20]: 2

COP(=O)(OC)c1cc(Oc2ncc(C(F)(F)F)cc2Cl)ccc1[N+](=O)[O-] [Compound 6, Dimethyl 2-nitro-5-(3'-chloro-5'-trifluoromethyl-2'-pyridyloxy)phenylphosphonate]
postemergence herbicidal action rating [2, 21]: 1
postemergence effectiveness in words [3]: very effective
postemergence herbicidal action rating [4, 21]: 3
preemergence herbicidal action rating ([13]; 10% wettable powder): 1
preemergence effectiveness in words [13]: very effective
action ([12]; concentration of 0.02%): over 95%
bactericidal properties in words [12]: pronounced bactericidal properties
postemergence herbicidal action rating [5, 21]: 1
preemergence herbicidal action rating ([14]; 10% wettable powder): 1
preemergence effectiveness in words [14]: very effective
preemergence herbicidal action rating ([15]; 10% wettable powder): 2
preemergence effectiveness in words [15]: very effective

CCOP(=O)(OCC)c1cc(Oc2ncc(C(F)(F)F)cc2Cl)ccc1[N+](=O)[O-] [Compound 7, Diethyl 2-nitro-5-(3'-chloro-5'-trifluoromethyl-2'-pyridyloxy)phenylphosphonate]
postemergence herbicidal action rating [2, 18]: 2
postemergence effectiveness in words [3]: very effective
postemergence herbicidal action rating [4, 18]: 3
postemergence herbicidal action rating [5, 18]: 1

CCOP(=O)(OCC)c1cc(Oc2ncc(Cl)cc2Cl)ccc1[N+](=O)[O-] [Compound 9, Diethyl 2-nitro-5-(3',5'-dichloro-2'-pyridyloxy)phenylphosphonate]
postemergence herbicidal action rating [2, 18]: 2
postemergence effectiveness in words [3]: very effective
postemergence herbicidal action rating [4, 18]: 2
postemergence herbicidal action rating [5, 18]: 1

O=[N+]([O-])c1ccc(Oc2ncc(C(F)(F)F)cc2Cl)cc1[N+](=O)[O-] [II-2, 1,2-dinitro-4-(3'-chloro-5'-trifluoromethyl-2'-pyridyloxy)benzene]
postemergence herbicidal action rating [16]: 1
herbicidal action in words [16]: excellent herbicidal action
postemergence herbicidal action rating [17]: 1
herbicidal action in words [17]: excellent herbicidal action

O=[N+]([O-])c1ccc(Oc2ccc(C(F)(F)F)cn2)cc1[N+](=O)[O-] [II-3, 1,2-dinitro-4-(5'-trifluoromethyl-2'-pyridyloxy)benzene]
postemergence herbicidal action rating [16]: 3
herbicidal action in words [16]: excellent herbicidal action
postemergence herbicidal action rating [17]: 1
herbicidal action in words [17]: excellent herbicidal action
